Legend:
[1] = biological target: serotonin transporter (SERT) (Rattus norvegicus (Rat), UniProt P31652); test: Competition radioligand binding, [3H]Citalopram, rat brain membranes; details: for IC50 / Ki: 5-HT transporter; for Ki: Cheng-Prusoff
From the text: (§1) Rat brain (Sprague Dawley, 200-250 g) synaptosomes were isolated from midbrain and hindbrain for serotonin transporter assays, striatum for dopamine transporter assays, and hippocampus plus overlying occipital cortex for norepinephrine transporter assays. Radioligands used were: [^3H]Citalopram 81.4 Ci/mmol (PerkinElmer NET1039250UC; Lot No. 2960876). [^3H]WIN35428 82.8 Ci/mmol (PerkinElmer NET1033250UC; Lot No. 2891473). [^3H]Nisoxetine 79.2 Ci/mmol (PerkinElmer NET1084250UC; Lot No. 2970324). Non-specific compounds used were: Citalopram (Tocris Bioscience 1427). JHW007 (Tocris Bioscience 4351). Nomifensine (Abcam ab146004). Test Compounds for the study were: racemic methylone HCl; (R)-methylone HCl; (S)-methylone HCl.
(§2) For membrane preparations, rat brains were dissected, tissue was added to ice-cold lysis buffer (50 mM Tris HCl; 5 mM MgCl2; 5 mM EDTA; protease inhibitor cocktail) and homogenized. The homogenate was centrifuged at 100×g for 2 minutes and the supernatant divided into polypropylene Eppendorf tubes. The supernatants were centrifuged at 17,000×g for 10 minutes at 4° C. to re-pellet the cell lysate. The pellet was resuspended in fresh wash buffer (50 mM Tris-HCl; 5 mM MgCl2; 5 mM EDTA) and centrifuged a third time at 17,000×g for 10 minutes at 4° C. The pellet was resuspended in wash buffer containing 10% sucrose as a cryoprotectant, divided into aliquots (0.3 mL) and stored at −80° C. A sample of the homogenate was analyzed for protein content using the MERCK® BCA assay. On the day of the assay, the membrane preparation was thawed and the pellet resuspended in final assay buffer.
(§3) Competition binding assays were carried out in 96-well polypropylene plates in a final volume of 250 μL per well. To each well was added 150 μL membranes, 50 μL of test compound, non-specific compound or buffer, and 50 μL radioligand solution in buffer. The plate was incubated at 30° C. for 90 minutes with gentle agitation. The incubation was stopped by vacuum filtration onto presoaked (wash buffer with PEI) GF/C filters using a 96-well FILTERMATE™ harvester, followed by 5 washes with ice-cold wash buffer. Filters were then dried under a warm air stream, sealed in polyethylene, scintillation cocktail added, and the radioactivity counted in a WALLAC® TriLux 1450 MicroBeta counter. For each concentration of drug, non-specific binding was subtracted from total binding to give specific binding. Data was fitted using the non-linear curve fitting routines in PRISM® (Graphpad Software Inc) to determine IC50. Ki was subsequently calculated using the ChengPrusoff equation.

[2] = biological target: norepinephrine transporter (NET); test: Competition radioligand binding, [3H]Nisoxetine, rat brain membranes; details: for IC50 / Ki: NE transporter; for Ki: Cheng-Prusoff
From the text: as §1, §2, §3

[3] = biological target: hCav1.2 (Homo sapiens (Human), UniProt Q13936); test: hCav1.2 (L-type) Calcium Channel Assay, Qube APC; assay type: cell-based; details: Cav1.2, Antagonist mode, test compound
Procedure: Where presented, IC50 values were determined by a non-linear, least squares regression analysis.
Recombinant HEK-293 cells stably transfected with human Nav1.5 cDNA, recombinant HEK293 cell line expressing the human Cav1.2 (L-type voltage gated calcium channel, hCav1.2 α1C/β2a/α2δ1, and recombinant CHO-K1 cells stably transfected with human hERG cDNA were used separately in each of these assays.
hCav1.2 (L-type) Calcium Channel Assay—Qube APC After whole cell configuration is achieved, the cells are held at −90 mV. Cav1.2 currents are evoked by a 50 ms pulse to −100 mV followed by a 200 ms pulse to +20 mV before returning to the holding potential of −90 mV. This paradigm is delivered three times every 60 s to monitor the current amplitude.

[4] = biological target: SERT (Rattus norvegicus (Rat), UniProt P31652); test: 5-HT release study; assay type: biochemical

hCav1.2, sequence (Q13936 whole entry, looked up): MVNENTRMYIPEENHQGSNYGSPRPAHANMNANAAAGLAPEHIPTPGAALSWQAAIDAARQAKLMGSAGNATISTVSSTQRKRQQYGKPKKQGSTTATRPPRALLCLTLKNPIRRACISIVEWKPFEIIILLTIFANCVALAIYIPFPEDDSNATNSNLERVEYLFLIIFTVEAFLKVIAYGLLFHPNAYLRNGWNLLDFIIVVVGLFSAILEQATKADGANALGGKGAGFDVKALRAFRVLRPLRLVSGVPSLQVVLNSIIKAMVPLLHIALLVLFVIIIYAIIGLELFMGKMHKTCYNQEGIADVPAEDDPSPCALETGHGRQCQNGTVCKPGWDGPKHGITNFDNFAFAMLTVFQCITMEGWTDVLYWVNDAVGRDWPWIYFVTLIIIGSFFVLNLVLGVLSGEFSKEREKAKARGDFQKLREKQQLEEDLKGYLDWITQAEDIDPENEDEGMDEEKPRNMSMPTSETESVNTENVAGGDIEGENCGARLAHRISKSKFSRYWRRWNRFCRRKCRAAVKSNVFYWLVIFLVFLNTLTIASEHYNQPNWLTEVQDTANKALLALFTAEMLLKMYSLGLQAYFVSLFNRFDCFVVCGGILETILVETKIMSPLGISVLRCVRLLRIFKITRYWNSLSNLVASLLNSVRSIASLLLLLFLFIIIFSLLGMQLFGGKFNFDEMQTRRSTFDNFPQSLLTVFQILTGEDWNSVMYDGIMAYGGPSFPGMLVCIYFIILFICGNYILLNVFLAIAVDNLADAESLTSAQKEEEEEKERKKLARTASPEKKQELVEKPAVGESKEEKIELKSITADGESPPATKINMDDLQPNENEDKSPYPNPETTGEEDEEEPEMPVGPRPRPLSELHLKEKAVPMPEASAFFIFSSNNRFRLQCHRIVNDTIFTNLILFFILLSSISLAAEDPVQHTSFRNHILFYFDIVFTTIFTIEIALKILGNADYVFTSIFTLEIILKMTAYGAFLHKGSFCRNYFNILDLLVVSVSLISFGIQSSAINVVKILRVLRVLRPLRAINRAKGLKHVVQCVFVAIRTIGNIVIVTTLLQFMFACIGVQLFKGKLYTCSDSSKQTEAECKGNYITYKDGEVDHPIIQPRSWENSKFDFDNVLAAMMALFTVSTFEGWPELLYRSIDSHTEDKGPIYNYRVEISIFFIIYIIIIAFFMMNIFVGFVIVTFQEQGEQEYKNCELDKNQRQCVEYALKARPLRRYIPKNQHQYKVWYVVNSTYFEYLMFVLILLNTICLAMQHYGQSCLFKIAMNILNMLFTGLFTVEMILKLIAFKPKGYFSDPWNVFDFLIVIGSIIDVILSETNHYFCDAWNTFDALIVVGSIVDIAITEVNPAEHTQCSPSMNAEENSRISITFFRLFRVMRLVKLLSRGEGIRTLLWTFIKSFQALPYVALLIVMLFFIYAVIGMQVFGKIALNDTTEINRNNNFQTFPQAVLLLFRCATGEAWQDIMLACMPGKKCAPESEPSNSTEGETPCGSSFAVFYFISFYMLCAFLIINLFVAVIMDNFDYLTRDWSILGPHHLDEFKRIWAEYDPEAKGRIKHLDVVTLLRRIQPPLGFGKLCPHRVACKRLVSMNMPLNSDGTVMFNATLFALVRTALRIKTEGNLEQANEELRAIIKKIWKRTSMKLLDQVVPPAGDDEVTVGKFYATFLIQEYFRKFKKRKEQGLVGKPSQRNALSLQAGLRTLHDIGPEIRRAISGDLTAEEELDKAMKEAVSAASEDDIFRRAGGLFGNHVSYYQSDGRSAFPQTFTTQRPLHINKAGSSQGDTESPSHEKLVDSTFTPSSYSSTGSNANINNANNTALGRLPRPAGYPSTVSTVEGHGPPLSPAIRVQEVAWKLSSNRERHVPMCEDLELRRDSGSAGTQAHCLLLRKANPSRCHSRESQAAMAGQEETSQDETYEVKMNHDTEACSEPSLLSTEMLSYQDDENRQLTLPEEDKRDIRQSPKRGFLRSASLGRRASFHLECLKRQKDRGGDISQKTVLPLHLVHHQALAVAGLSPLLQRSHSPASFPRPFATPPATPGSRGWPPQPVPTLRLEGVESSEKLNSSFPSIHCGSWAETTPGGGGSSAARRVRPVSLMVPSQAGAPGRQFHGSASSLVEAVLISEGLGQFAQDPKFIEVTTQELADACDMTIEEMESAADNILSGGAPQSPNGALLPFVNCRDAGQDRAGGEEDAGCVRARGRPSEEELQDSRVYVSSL
hCav1.2, sequence (Q08289 whole entry partner, looked up): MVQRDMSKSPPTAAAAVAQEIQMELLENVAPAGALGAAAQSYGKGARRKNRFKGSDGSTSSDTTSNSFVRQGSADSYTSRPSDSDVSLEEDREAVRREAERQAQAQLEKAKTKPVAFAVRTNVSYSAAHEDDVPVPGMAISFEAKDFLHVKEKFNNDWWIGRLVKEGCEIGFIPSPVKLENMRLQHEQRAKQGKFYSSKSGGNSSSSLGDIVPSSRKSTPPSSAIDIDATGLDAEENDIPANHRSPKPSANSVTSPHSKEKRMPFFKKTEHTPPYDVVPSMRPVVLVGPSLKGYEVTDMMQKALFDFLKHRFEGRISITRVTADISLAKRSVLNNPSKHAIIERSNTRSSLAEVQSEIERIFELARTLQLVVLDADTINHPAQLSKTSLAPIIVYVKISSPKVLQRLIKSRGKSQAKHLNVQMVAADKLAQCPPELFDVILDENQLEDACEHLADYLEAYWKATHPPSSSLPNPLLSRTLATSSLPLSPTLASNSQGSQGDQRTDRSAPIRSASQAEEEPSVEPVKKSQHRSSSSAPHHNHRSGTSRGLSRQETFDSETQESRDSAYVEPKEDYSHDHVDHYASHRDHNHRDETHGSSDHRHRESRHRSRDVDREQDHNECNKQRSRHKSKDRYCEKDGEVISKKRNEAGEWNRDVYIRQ
hCav1.2, sequence (P54289 whole entry partner, looked up): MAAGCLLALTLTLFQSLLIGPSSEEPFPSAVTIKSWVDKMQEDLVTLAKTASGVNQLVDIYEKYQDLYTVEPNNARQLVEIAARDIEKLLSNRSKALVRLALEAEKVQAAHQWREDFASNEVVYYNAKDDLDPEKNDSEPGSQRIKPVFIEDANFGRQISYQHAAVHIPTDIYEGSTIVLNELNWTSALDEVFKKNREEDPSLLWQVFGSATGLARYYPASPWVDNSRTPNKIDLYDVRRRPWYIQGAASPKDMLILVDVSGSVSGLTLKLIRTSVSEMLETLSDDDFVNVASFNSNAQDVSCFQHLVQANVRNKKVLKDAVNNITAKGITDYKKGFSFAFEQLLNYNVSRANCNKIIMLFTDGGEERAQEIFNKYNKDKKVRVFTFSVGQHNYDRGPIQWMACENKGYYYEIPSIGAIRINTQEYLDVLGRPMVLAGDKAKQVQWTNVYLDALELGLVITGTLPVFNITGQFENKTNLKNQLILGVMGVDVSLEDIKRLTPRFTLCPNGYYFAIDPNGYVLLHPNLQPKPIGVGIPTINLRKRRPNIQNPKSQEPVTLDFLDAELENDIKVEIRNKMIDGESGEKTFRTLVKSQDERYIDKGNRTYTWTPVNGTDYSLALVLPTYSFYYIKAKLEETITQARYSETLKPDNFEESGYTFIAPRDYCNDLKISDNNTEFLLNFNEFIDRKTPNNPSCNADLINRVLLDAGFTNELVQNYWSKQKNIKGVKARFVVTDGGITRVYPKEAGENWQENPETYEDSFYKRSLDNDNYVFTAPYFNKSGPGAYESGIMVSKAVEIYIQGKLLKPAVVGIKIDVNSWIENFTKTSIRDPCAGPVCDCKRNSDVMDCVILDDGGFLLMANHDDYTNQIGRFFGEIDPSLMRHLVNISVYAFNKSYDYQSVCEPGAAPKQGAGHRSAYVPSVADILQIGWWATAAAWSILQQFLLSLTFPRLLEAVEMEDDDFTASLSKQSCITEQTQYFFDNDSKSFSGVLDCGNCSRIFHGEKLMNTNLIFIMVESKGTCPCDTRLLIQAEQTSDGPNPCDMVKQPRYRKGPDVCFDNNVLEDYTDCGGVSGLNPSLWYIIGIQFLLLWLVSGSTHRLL
hCav1.2, sequence (P54289 whole entry partner, looked up): as above

SMILES | IC50 [1] [µM] | Ki [1] [µM] | Potency relative to racemic methylone ([1]; SERT binding) | IC50 [2] [µM] | Ki [2] [µM] | Estimated IC50 [3] | Potency relative to racemic methylone ([2]; NET binding) | EC50 [4] [µM]
CN[C@H](C)C(=O)c1ccc2c(c1)OCO2 [(R)-methylone] | 34.7 | 21.1 | approximately three-fold less potent | 4.67 | 2.19 | N/C (N/C indicates observed mean inhibition was <25%) |  | 
CN[C@@H](C)C(=O)c1ccc2c(c1)OCO2 [(S)-methylone] | 6.52 | 3.95 |  | 7.12 | 3.37 | N/C (N/C indicates observed mean inhibition was <25%) | nearly two-fold less potent | 1.18

Source: patent publication US20240327372A1, “PREPARATION OF PHENE[…] […] STEREOISOMERS THEREOF AND PRECURSORS THEREOF” (priority 2022, published 2024)
